Data set [1] concerns PDAPP mice. The data set is described as follows: In Vivo Inhibition of Beta-Secretase (brain Abeta 1-x reduction). Set-up: species or system mouse. The conditions noted are these: for Abeta 1-x peptide levels reduced in brain cortex / Abeta 1-x peptide levels reduced in brain hippocampus: 3 hours after administration, compared to vehicle-treated mice. From the text:
Several animal models, including mouse, guinea pig, dog, and monkey, may be used to screen for inhibition of beta-secretase activity in vivo following compound treatment. Animals used in this invention can be wild type, transgenic, or gene knockout animals. For example, the PDAPP mouse model, prepared as described in Games et al., Nature 373, 523-527 (1995), and other non-transgenic or gene knockout animals are useful to analyze in vivo inhibition of Abeta and sAPPbeta production in the presence of inhibitory compounds. Generally, 2 to 12 month old PDAPP mice, gene knockout mice or non-transgenic animals are administered compound formulated in vehicles, such as corn oil, cyclodextran, phosphate buffers, PHARMASOLVE®, or other suitable vehicles. One to twenty-four hours following the administration of compound, animals are sacrificed, and brains as well as cerebrospinal fluid and plasma are removed for analysis of Abetas, C99, and sAPP fragments. (See May, et al., Journal of Neuroscience, 31, 16507-16516 (2011)).
For standard in vivo pharmacology studies, animals are dosed with various concentrations of compound and compared to a vehicle-treated control group dosed at the same time. For some time course studies, brain tissue, plasma, or cerebrospinal fluid is obtained from selected animals, beginning at time 0 to establish a baseline. Compound or appropriate vehicle is administered to other groups and sacrificed at various times after dosing. Brain tissue, plasma, or cerebrospinal fluid is obtained from selected animals and analyzed for the presence of APP cleavage products, including Abeta peptides, sAPPbeta, and other APP fragments, for example, by specific sandwich ELISA assays. At the end of the test period, animals are sacrificed and brain tissues, plasma, or cerebrospinal fluid are analyzed for the presence of Abeta peptides, C99, and sAPPbeta, as appropriate. Brain tissues of APP transgenic animals may also be analyzed for the amount of beta-amyloid plaques following compound treatment. “Abeta 1-x peptide” as used herein refers to the sum of Abeta species that begin with residue 1 and ending with a C-terminus greater than residue 28. This detects the majority of Abeta species and is often called “total Abeta”.

In data set [2] the test system is primary cortical neurons from PDAPP transgenic embryonic mice. The experiment in a line: PDAPP Primary Neuronal Assay (Abeta ELISA). It is filed as cell-based. The conditions noted are these: Mus musculus, Primary cortical neuron, 24 h. The procedure:
(§1) For in vitro enzymatic and cellular assays, test compounds are prepared in DMSO to make up a 10 mM stock solution. The stock solution is serially diluted in DMSO to obtain a ten-point dilution curve with final compound concentrations ranging from […] to 0.05 nM in a 96-well round-bottom plate before conducting the in vitro enzymatic and whole cell assays.
A confirmatory whole cell assay is also run in primary neuronal cultures generated from PDAPP transgenic embryonic mice. Primary cortical neurons are prepared from Embryonic Day 16 PDAPP embryos and cultured in 96 well plates (15×10^4 cells/well in DMEM/F12 (1:1) plus 10% FBS). After 2 days in vitro, culture media is replaced with serum free DMEM/F12 (1:1) containing B27 supplement and 2 μM (final) of Ara-C (Sigma, C1768). At day 5 in vitro, neurons are incubated at 37° C. for 24 h in the presence/absence of inhibitors (diluted in DMSO) at the desired concentration. At the end of the incubation, conditioned media are analyzed for evidence of beta-secretase activity, for example, by analysis of Abeta peptides. Total Abeta peptides (Abeta 1-x) are measured by a sandwich ELISA, using monoclonal 266 as a capture antibody and biotinylated 3D6 as reporting antibody. Alternatively, Abeta 1-40 and Abeta 1-42 peptides are measured by a sandwich ELISA, using monoclonal 2G3 as a capture antibody for Abeta 1-40, and monoclonal 21F12 as a capture antibody for Abeta 1-42. Both Abeta 1-40 and Abeta 1-42 ELISAs use biotinylated 3D6 as the reporting antibody. The concentration of Abeta released in the conditioned media following the compound treatment corresponds to the activity of BACE1 under such conditions. The 10-point inhibition curve is plotted and fitted with the four-parameter logistic equation to obtain the EC50 and IC50 values for the Abeta-lowering effect.
For orientation: In an ELISA, binding on a coated surface is turned into a signal by an enzyme label.

For data set [3], the system named is HEK293Swe cells. The data set is described as follows: HEK293Swe Whole Cell Assay (Abeta ELISA). It is filed as cell-based. The following applies: Homo sapiens. On the procedure:
as §1
In vitro Abeta reduction assays have been described in the literature (See Dovey, et al., Journal of Neurochemistry, 76, 173-181 (2001); Seubert, et al., Nature, 361, 260 (1993); and Johnson-Wood, et al., Proc. Natl. Acad. Sci. USA, 94, 1550-1555 (1997)).
At the end of the incubation, conditioned media are analyzed for evidence of beta-secretase activity, for example, by analysis of Abeta peptides. Total Abeta peptides (Abeta 1-x) are measured by a sandwich ELISA, using monoclonal 266 as a capture antibody and biotinylated 3D6 as reporting antibody. Alternatively, Abeta 1-40 and Abeta 1-42 peptides are measured by a sandwich ELISA, using monoclonal 2G3 as a capture antibody for Abeta 1-40, and monoclonal 21F12 as a capture antibody for Abeta 1-42. Both Abeta 1-40 and Abeta 1-42 ELISAs use biotinylated 3D6 as the reporting antibody. The concentration of Abeta released in the conditioned media following the compound treatment corresponds to the activity of BACE1 under such conditions. The 10-point inhibition curve is plotted and fitted with the four-parameter logistic equation to obtain the EC50 and IC50 values for the Abeta-lowering effect.

Data set [4] has as its target human BACE1(1-460):Fc (Homo sapiens (Human), UniProt P56817). The data set is described as follows: BACE1 FRET Assay. The following applies: purified recombinant huBACE1:Fc, FRET substrate, pH 4.6; Mean ± SEM. It counts as biochemical. On the procedure:
as §1
Human BACE1 (accession number: AF190725) is cloned from total brain cDNA by RT-PCR. The nucleotide sequences corresponding to amino acid sequences #1 to 460 are inserted into the cDNA encoding human IgG1 (Fc) polypeptide (Vassar et al. 1999). This fusion protein of BACE1(1-460) and human Fc, named huBACE1:Fc, is constructed into the pJB02 vector. Human BACE1(1-460):Fc (huBACE1:Fc) is transiently expressed in HEK293 cells. 250 μg cDNA of each construct is mixed with Fugene 6 and added to 1 liter HEK293 cells. Four days after the transfection, conditioned media are harvested for purification.
huBACE1:Fc is purified by Protein A chromatography. The enzyme is stored at −80° C. in small aliquots.
Serial dilutions of test compounds are prepared as described above. Compounds are further diluted 20× in KH2PO4 buffer. […] The content is mixed well on a plate shaker for 10 minutes. Fifteen μL of two hundred pM human BACE1(1-460):Fc (See Vasser, et al., Science, 286, 735-741 (1999)) in the KH2PO4 buffer is added to the plate containing substrate and test compounds to initiate the reaction. The RFU of the mixture at time 0 is recorded at excitation wavelength 355 nm and emission wavelength 460 nm, after brief mixing on a plate shaker. The reaction plate is covered with aluminum foil and kept in a dark humidified oven at room temperature for 16 to 24 h. The RFU at the end of incubation is recorded with the same excitation and emission settings used at time 0. The difference of the RFU at time 0 and the end of incubation is representative of the activity of BACE1 under the compound treatment. RFU differences are plotted versus inhibitor concentration and a curve is fitted with a four-parameter logistic equation to obtain the EC50 and IC50 values. (See Sinha, et al., Nature, 402, 537-540 […]).

Each structure is given as a SMILES string. Where two headings read alike, the source gives them in different places.

Chain of human BACE1(1-460):Fc (P56817 22-460): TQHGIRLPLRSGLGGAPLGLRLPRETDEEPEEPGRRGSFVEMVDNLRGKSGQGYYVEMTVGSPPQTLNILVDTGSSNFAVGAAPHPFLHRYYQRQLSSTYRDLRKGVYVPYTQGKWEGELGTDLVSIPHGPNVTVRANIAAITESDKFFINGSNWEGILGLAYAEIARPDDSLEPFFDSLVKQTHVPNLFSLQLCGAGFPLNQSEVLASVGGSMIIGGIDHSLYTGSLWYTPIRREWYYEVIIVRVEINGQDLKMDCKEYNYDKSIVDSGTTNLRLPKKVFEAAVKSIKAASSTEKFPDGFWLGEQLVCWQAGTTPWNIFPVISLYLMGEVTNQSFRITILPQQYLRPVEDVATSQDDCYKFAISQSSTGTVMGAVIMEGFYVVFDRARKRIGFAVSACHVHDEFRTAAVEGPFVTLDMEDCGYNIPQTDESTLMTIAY

By IC50 is commonly meant the midpoint of a concentration-inhibition curve. Consider `Cl.NC1=N[C@@]2(c3cccc(NC(=O)c4ccc(F)cn4)c3)CN(c3ncc(F)cn3)C[C@H]2CS1` [Example 1, N-{3-[(4aR,7aS)-2-Amino-6-(5-fluoropyrimidin-2-yl)-4a,5,6,7-tetrahydropyrrolo[3,4-d][1,3]thiazin-7a(4H)-yl]phenyl}-5-fluoropyridine-2-carboxamide hydrochloride], for which the CNS penetration result in data set [1] is “demonstrate CNS penetration”. The “Abeta 1-x peptide levels reduced in brain cortex” value was “approximately 43%” in data set [1] (1 mg/kg oral dose), around 59% in data set [1] (3 mg/kg oral dose) and around 66% in data set [1] (10 mg/kg oral dose). In addition, the “Abeta 1-x peptide levels reduced in brain hippocampus” value is reported as “approximately 34%” in data set [1] (1 mg/kg oral dose), around 48% in data set [1] (3 mg/kg oral dose) and around 53% in data set [1] (10 mg/kg oral dose). Also, the IC50 came to 0.487 nM in data set [2] (Abeta 1-40, Mean ± SEM, read-out: PDAPP Neuron A-beta (1-40) ELISA IC50); 0.591 nM in data set [2] (Abeta 1-42, Mean ± SEM, read-out: PDAPP Neuron A-beta (1-42) ELISA IC50); 0.619 nM in data set [3] (HEK293, Abeta 1-40 in conditioned media, read-out: HEK 293 Swe A-beta (1-40) ELISA IC50); 0.437 nM in data set [3] (HEK293, Abeta 1-42 in conditioned media, read-out: HEK 293 Swe A-beta (1-42) ELISA IC50); 0.61 nM in data set [4].
